Tests used:
[1] = Aqueous solubility of CCI-779; format: physicochemical; settings: water (aqueous)
Method: (§1) One obstacle towards the formulation of CCI-779 is its poor aqueous solubility (less than 1 μg/ml), which makes its bioavailability low.

[2] = Aqueous stability of CCI-779; format: physicochemical; settings: cleavage of a lactone bond, forming ring opened seco-CCI-779
Method: as §1

[3] = system: tumor cells; settings: histologically diverse tumor cells; cited from earlier work
[4] = system: human tumor xenografts; settings: nude mice, diverse histological types; cited from earlier work

solubility [1]: < 1 µg/mL
aqueous stability [2]: exhibits aqueous instability
SMILES: CO[C@H]1C[C@@H]2CC[C@@H](C)[C@@](O)(O2)C(=O)C(=O)N2CCCC[C@H]2C(=O)O[C@H]([C@H](C)C[C@@H]2CC[C@@H](OC(=O)C(C)(CO)CO)[C@H](OC)C2)CC(=O)[C@H](C)/C=C(\C)[C@@H](O)[C@@H](OC)C(=O)[C@H](C)C[C@H](C)/C=C/C=C/C=C/1C [CCI-779, rapamycin 42-ester with 3-hydroxy-2-(hydroxymethyl)-2-methylpropionic acid]
inhibition of tumor cell growth in vitro [3]: inhibit the growth of a number of histologically diverse tumor cells
activity against human tumor xenografts [4]: has activity against human tumor xenografts of diverse histological types
